Measurements from ChEMBL document CHEMBL6127073, “Utilizing artificial intelligence for precision exploration of N protein targeting phenanthridine sars-cov-2 inhibitors: A novel approach” (Eur J Med Chem, 2024).
Calls of active or inactive are those of the source. The rule behind the calls is not given here.

Assays:
[1] = biological target: T1, Nucleoprotein (Severe acute respiratory syndrome coronavirus 2, UniProt P0DTC9); test: Binding affinity to SARS-CoV-2 N-pro assessed as dissociation constant by SPR analysis
[2] = biological target: T1, Nucleoprotein; test: Binding affinity to SARS-CoV-2 N-pro assessed as dissociation constant by MST analysis
[3] = Cytotoxicity against African green monkey Vero E6 cells after 72 hrs by CCK8 assay; format: toxicity, cell-based, Vero C1008; conditions: chlorocebus sabaeus
[4] = tested on: SARS-CoV-2; test: Antiviral activity against SARS-CoV-2 107 infected in African green monkey Vero E6 cells assessed as inhibition of virus induced cytopathic effect by neutral red staining based analysis; format: functional, organism-based; conditions: Severe acute respiratory syndrome coronavirus 2, time 74.0 hrs
[5] = tested on: SARS-CoV-2; test: Antiviral activity against SARS-CoV-2 107 infected in African green monkey Vero E6 cells assessed as increase in cell survival rate at 50 uM pre-infected with virus followed by compound addition for 2 hrs and measured after 72 hrs by MTT assay; format: functional, organism-based; conditions: Severe acute respiratory syndrome coronavirus 2, time 74.0 hrs
[6] = tested on: SARS-CoV-2; test: Antiviral activity against SARS-CoV-2 107 infected in African green monkey Vero E6 cells assessed as inhibition of viral replication pre-infected with virus followed by compound addition and measured after 72 hrs by inverted microscopic analysis; format: functional, organism-based; conditions: Severe acute respiratory syndrome coronavirus 2, 107, Vero C1008, 72 h
[7] = Selectivity index, ratio of CC50 for cytotoxicity against African green monkey Vero E6 cells to EC50 for antiviral activity against SARS-CoV-2 107 infected in African green monkey Vero E6 cells; format: toxicity, cell-based; conditions: read-out: Ratio CC50/EC50
[8] = biological target: T1, Nucleoprotein; test: Binding affinity to SARS-CoV-2 N-pro assessed as dissociation constant in presence of ssRNA by MST analysis
[9] = biological target: Nucleoprotein (Severe acute respiratory syndrome coronavirus 2) (UniProt P0DTC9); test: Inhibition of ssRNA binding to SARS-CoV-2 N-pro at 100 uM by MST analysis relative to control
[10] = biological target: T1, Nucleoprotein; test: Binding affinity to wild type SARS-CoV-2 N-pro assessed as dissociation constant by MST analysis

Structure (SMILES)	Kd [1]	further results
CCn1c(=O)c2cc(OC)c(OC)cc2c2cccc(/N=C/c3c4ccccc4cc4ccccc34)c21	9.71 µM	
CCn1c(=O)c2cc(OC)c(OC)cc2c2cccc(/C=N/c3nc[nH]n3)c21	63.7 µM	
CCn1c(=O)c2cc(OC)c(OC)cc2c2cccc(C3C4=C(CCCC4=O)N(c4ccccc4)C4=C3C(=O)CCC4)c21	168 µM	
CCn1c(=O)c2cc(OC)c(OC)cc2c2cccc(NS(=O)(=O)c3ccc(Cl)cc3)c21	5.27 µM	
CCN1Cc2cc(OC)c(OC)cc2-c2cccc(NCc3csc4ccc(Cl)cc34)c21	97.7 µM	
CCn1c(=O)c2cc(OC)c(OC)cc2c2cccc(/C=N/C3C=CNN3)c21 (stereo unspecified)	2.53 µM	
CCN1Cc2cc(OC)c(OC)cc2-c2cccc(NC(=O)c3cc([N+](=O)[O-])cc([N+](=O)[O-])c3)c21	37.9 µM	
CCN1Cc2cc(OC)c(OC)cc2-c2cccc(Nc3ccc4c(c3)oc3ccccc34)c21	44.1 µM	
CCN1Cc2cc(OC)c(OC)cc2-c2cccc(NC(=O)Nc3cccc4c3N(CC)Cc3cc(OC)c(OC)cc3-4)c21	4.58 µM	
CCN1Cc2cc(OC)c(OC)cc2-c2cccc(NC(=O)Cc3ccccc3)c21	5.31 µM	
CCN1Cc2cc(OC)c(OC)cc2-c2cccc(Nc3ncnc4c3nnn4Cc3ccccc3)c21	0.35 µM	Kd [2]: 0.73 µM; CC50 at 72 h [3]: > 200 µM; Activity [4]: Active; Activity [5]: Active; EC50 [6]: 11.3 µM; selectivity ratio [7]: > 17.7; Kd [8]: 83.7 µM; inhibition [9]: 100%; Kd [10]: 5.4 µM
CCN1Cc2cc(OC)c(OC)cc2-c2cccc(NCc3ccc(C4(C(F)(F)F)N=N4)cc3)c21	37 µM	
